Experimental data reported in US20060122099A1, “Method for infusing insulin to a subject to improve impaired total body tissue glucose processing” (priority 2004, published 2006).

Experiments:
[1] = Circulating glucose by finger stick during insulin pulse treatments; format: in vivo, human; settings: during the first treatment, with ingested carbohydrates; all examples
Text: In prototype testing, a commercially available LIFESCAN ONETOUCH ULTRA glucose meter was used to measure the subject's baseline and subsequent circulating blood glucose level. The glucose meter was calibrated according to the manufacturer's recommendations. A blood sampler test strip was then inserted into the blood glucose meter as directed by the manufacturer. The glucose meter automatically turned on upon proper insertion of the test strip into the meter. This commercially available glucose meter utilized a lancet to prick the subject's fingertip or arm. After pricking the skin, the user gently massages the area to help form a round drop of blood (about one micro-liter in volume) on the skin surface. The subject then caused the blood sample to be absorbed onto the blood sampler test strip per the manufacturer's recommended procedure. If adequate blood was absorbed by the blood sampler test strip, the blood glucose level was automatically calculated and shown on the instrument's display panel in approximately 5 seconds. […]
For all of the above listed examples, after the initial few days of treatment, the patients underwent treatment once a week, each treatment day consisting of three infusions of insulin accompanied by ingestion of carbohydrates. […] The patients' circulating glucose were measured once every thirty minutes by the finger stick method currently used by most diabetic patients. […]

[2] = stated without source; cited from earlier work

In the case of insulin, the “rise in circulating glucose levels” value [1] is listed as 100 to 150 mg/dL and the half-life [2] is listed as 5 min.
